Key:
[1] = system: GDF8 signaling (GDF pSMAD, MPC11); experiment: AlphaScreen SureFire SMAD3 (p-Ser423/425) assay, inhibition of GDF8 signaling; assay type: cell-based; conditions: Mus musculus, MPC-11, inhibition of GDF8 signaling, p-SMAD3 readout
[2] = system: TGF-β signaling (TGF-β pSMAD, MPC-11); experiment: AlphaScreen SureFire SMAD3 (p-Ser423/425) assay, inhibition of TGF-β signaling; assay type: cell-based; conditions: Mus musculus, MPC-11, inhibition of TGF-β signaling, p-SMAD3 readout

| SMILES | IC50 [1] [nM] | IC50 [2] [nM] |
| --- | --- | --- |
| CCc1nc(-c2cc(C)cc(F)c2)c(-c2ccc3[nH]ncc3c2)[nH]1 [Compound 142, 5-(2-Ethyl-4-(3-fluoro-5-methylphenyl)-1H-imidazol-5-yl)-1H-indazole] | 670 | 4390 |
| Fc1ccc(-c2nc[nH]c2-c2ccc3[nH]ncc3c2)cc1F [Compound 31, 5-(4-(3,4-Difluorophenyl)-1H-imidazol-5-yl)-1H-indazole] | 20 | 90 |
| Cc1cccc(-c2nc[nH]c2-c2ccc3cn[nH]c3c2)c1 [Compound 16, 6-(4-(m-Tolyl)-1H-imidazol-5-yl)-1H-indazole] | 20 | 100 |
| Cn1cnc(-c2ccc(F)cc2)c1-c1ccc2ncn(C)c2c1 [Compound 50, 6-(4-(4-Fluorophenyl)-1-methyl-1H-imidazol-5-yl)-1-methyl-1H-benzo[d]imidazole] | 1020 | 1870 |
| COc1cccc(-c2nc(N)sc2-c2ccc3nccn3c2)c1 [Compound 184, 5-(imidazo[1,2-a]pyridin-6-yl)-4-(3-methoxyphenyl)thiazol-2-amine] | 402 | 1160 |
| Cc1cccc(-c2nc(C)n(C)c2-c2ccc3[nH]ncc3c2)c1 [Compound 56, 5-(1,2-Dimethyl-4-(m-tolyl)-1H-imidazol-5-yl)-1H-indazole] | 730 | 5300 |
| CCc1nc(-c2cccc(Cl)c2)c(-c2ccc3nccn3c2)[nH]1 [Compound 127, 6-(4-(3-Chlorophenyl)-2-ethyl-1H-imidazol-5-yl)imidazo[1,2-a]pyridine] | 190 | 570 |
| Nc1nc(-c2cccc(Cl)c2)c(-c2ccc3[nH]ncc3c2)s1 [Compound 168, 4-(3-chlorophenyl)-5-(1H-indazol-5-yl)thiazol-2-amine] | 80 | 338 |
| CCc1nc(-c2cc(C)cc(F)c2)c(-c2ccc3cn[nH]c3c2)[nH]1 [Compound 143, 6-(2-Ethyl-4-(3-fluoro-5-methylphenyl)-1H-imidazol-5-yl)-1H-indazole] | 450 | 3140 |
| Cc1nc(-c2ccc(F)cc2)c(-c2ccc3nccnc3c2)[nH]1 [Compound 82, 6-(4-(4-Fluorophenyl)-2-methyl-1H-imidazol-5-yl)quinoxaline] | 480 | 3270 |
| Cc1cccc(-c2nc[nH]c2-c2ccc3nccnc3c2)c1 [Compound 20, 6-(4-(m-Tolyl)-1H-imidazol-5-yl)quinoxaline] | 180 | 160 |
| CCc1nc(-c2cccc(Cl)c2)c(-c2ccc3ncccc3c2)[nH]1 [Compound 128, 6-(4-(3-Chlorophenyl)-2-ethyl-1H-imidazol-5-yl)quinoline] | 460 | 1480 |
| CCc1nc(-c2ccc(F)c(F)c2)c(-c2ccc3ncnn3c2)[nH]1 [Compound 132, 6-(4-(3,4-Difluorophenyl)-2-ethyl-1H-imidazol-5-yl)-[1,2,4]triazolo[1,5-a]pyridine] | 550 | 1390 |
| Cc1nc(-c2ccc(F)c(C)c2)c(-c2ccc3ncsc3c2)[nH]1 [Compound 73, 6-(4-(4-Fluoro-3-methylphenyl)-2-methyl-1H-imidazol-5-yl)benzo[d]thiazole] | 100 | 950 |
| Cn1cnc2ccc(-c3[nH]cnc3-c3ccc(F)c(F)c3)cc21 [Compound 33, 6-(4-(3,4-Difluorophenyl)-1H-imidazol-5-yl)-1-methyl-1H-benzo[d]imidazole] | 60 | 70 |
| Cc1cc(-c2ncsc2-c2ccc3[nH]ncc3c2)ccc1F [Compound 156, 4-(4-fluoro-3-methylphenyl)-5-(1H-indazol-5-yl)thiazole] | 25.3 | 134 |
| Nc1nc(-c2cccc(C(F)(F)F)c2)c(-c2ccc3cn[nH]c3c2)s1 [Compound 185, 5-(1H-indazol-6-yl)-4-(3-(trifluoromethyl)phenyl)thiazol-2-amine] | 425 | 2360 |
| Cn1cnc(-c2ccc(F)cc2)c1-c1ccc2ncsc2c1 [Compound 51, 6-(4-(4-Fluorophenyl)-1-methyl-1H-imidazol-5-yl)benzo[d]thiazole] | 780 | 2710 |
| Cc1nc(-c2ccc(F)cc2)c(-c2ccc3nccn3c2)[nH]1 [Compound 81, 6-(4-(4-Fluorophenyl)-2-methyl-1H-imidazol-5-yl)imidazo[1,2-a]pyridine] | 390 | 2620 |
| Cc1cc(-c2nc(N)sc2-c2ccc3cn[nH]c3c2)ccc1F [Compound 174, 4-(4-fluoro-3-methylphenyl)-5-(1H-indazol-6-yl)thiazol-2-amine] | 144 | 431 |
| Cc1cc(-c2nc(C)n(C)c2-c2ccc3[nH]ncc3c2)ccc1F [Compound 52, 5-(4-(4-Fluoro-3-methylphenyl)-1,2-dimethyl-1H-imidazol-5-yl)-1H-indazole] | 210 | 910 |
| Cc1cc(-c2nc(C)n(C)c2-c2ccc3ncn(C)c3c2)ccc1F [Compound 54, 6-(4-(4-Fluoro-3-methylphenyl)-1,2-dimethyl-1H-imidazol-5-yl)-1-methyl-1H-benzo[d]imidazole] | 410 | 3100 |

| SMILES | IC50 [1] [nM] | IC50 [2] [nM] |
| --- | --- | --- |
| CCc1nc(-c2cccc(C)c2)c(-c2ccc3[nH]ncc3c2)[nH]1 [Compound 113, 5-(2-Ethyl-4-(m-tolyl)-1H-imidazol-5-yl)-1H-indazole] | 460 | 3110 |
| Fc1ccc(-c2nc[nH]c2-c2ccc3cn[nH]c3c2)cc1 [Compound 11, 6-(4-(4-Fluorophenyl)-1H-imidazol-5-yl)-1H-indazole] | 40 | 130 |
| CCc1nc(-c2ccc(F)cc2)c(-c2ccc3cn[nH]c3c2)[nH]1 [Compound 120, 6-(2-Ethyl-4-(4-fluorophenyl)-1H-imidazol-5-yl)-1H-indazole] | 470 | 8160 |
| CCc1nc(-c2cc(F)cc(Cl)c2)c(-c2ccc3nccnc3c2)[nH]1 [Compound 141, 6-(4-(3-Chloro-5-fluorophenyl)-2-ethyl-1H-imidazol-5-yl)quinoxaline] | 660 | 2910 |
| CCc1nc(-c2ccc(F)c(F)c2)c(-c2ccc3ncsc3c2)[nH]1 [Compound 133, 6-(4-(3,4-Difluorophenyl)-2-ethyl-1H-imidazol-5-yl)benzo[d]thiazole] | 360 | 2210 |
| Cc1cc(-c2ncsc2-c2ccc3cn[nH]c3c2)ccc1F [Compound 159, 4-(4-fluoro-3-methylphenyl)-5-(1H-indazol-6-yl)thiazole] | 36.7 | 171 |
| CCc1nc(-c2cc(C)cc(F)c2)c(-c2ccc3ncsc3c2)[nH]1 [Compound 145, 6-(2-Ethyl-4-(3-fluoro-5-methylphenyl)-1H-imidazol-5-yl)benzo[d]thiazole] | 530 | 2950 |
| Fc1cccc(-c2nc[nH]c2-c2ccc3ncccc3c2)c1 [Compound 40, 6-(4-(3-Fluorophenyl)-1H-imidazol-5-yl)quinoline] | 460 | 1220 |
| CCc1nc(-c2cccc(F)c2)c(-c2ccc3nccn3c2)[nH]1 [Compound 138, 6-(2-Ethyl-4-(3-fluorophenyl)-1H-imidazol-5-yl)imidazo[1,2-a]pyridine] | 730 | 3260 |
| CCc1nc(-c2ccc(F)c(C)c2)c(-c2ccc3ncccc3c2)[nH]1 [Compound 111, 6-(2-Ethyl-4-(4-fluoro-3-methylphenyl)-1H-imidazol-5-yl)quinoline] | 790 | 4480 |
| Cc1cccc(-c2ncn(C)c2-c2ccc3ncn(C)c3c2)c1 [Compound 43, 1-Methyl-6-(1-methyl-4-(m-tolyl)-1H-imidazol-5-yl)-1H-benzo[d]imidazole] | 190 | 530 |
| Cc1cccc(-c2nc[nH]c2-c2ccc3ncn(C)c3c2)c1 [Compound 17, 1-Methyl-6-(4-(m-tolyl)-1H-imidazol-5-yl)-1H-benzo[d]imidazole] | 50 | 140 |
| Cn1cnc(-c2ccc(F)cc2)c1-c1ccc2cn[nH]c2c1 [Compound 49, 6-(4-(4-Fluorophenyl)-1-methyl-1H-imidazol-5-yl)-1H-indazole] | 570 | 1210 |
| Cc1cc(-c2nc[nH]c2-c2ccc3[nH]ncc3c2)ccc1F [Compound 3, 5-(4-(4-Fluoro-3-methylphenyl)-1H-imidazol-5-yl)-1H-indazole] | 10 | 10 |
| Nc1nc(-c2ccc(F)cc2)c(-c2ccc3nccnc3c2)s1 [Compound 170, 4-(4-fluorophenyl)-5-(quinoxalin-6-yl)thiazol-2-amine] | 98.6 | 656 |
| Nc1nc(-c2cccc(C(F)(F)F)c2)c(-c2ccc3ncsc3c2)s1 [Compound 176, 5-(benzo[d]thiazol-6-yl)-4-(3-(trifluoromethyl)phenyl)thiazol-2-amine] | 158 | 600 |
| CCc1nc(-c2ccc(F)c(F)c2)c(-c2ccc3nccnc3c2)[nH]1 [Compound 135, 6-(4-(3,4-Difluorophenyl)-2-ethyl-1H-imidazol-5-yl)quinoxaline] | 770 | 3420 |
| Cc1nc(-c2cc(F)c(F)cc2F)c(-c2ccc3ncsc3c2)[nH]1 [Compound 99, 6-(2-Methyl-4-(2,4,5-trifluorophenyl)-1H-imidazol-5-yl)benzo[d]thiazole] | 40 | 240 |
| COc1ccc(-c2ncn(C)c2-c2ccc3cn[nH]c3c2)cc1 [Compound 70, 6-(4-(4-Methoxyphenyl)-1-methyl-1H-imidazol-5-yl)-1H-indazole] | 700 | 5220 |
| CCc1nc(-c2ccc(F)c(C)c2)c(-c2ccc3nccnc3c2)[nH]1 [Compound 112, 6-(2-Ethyl-4-(4-fluoro-3-methylphenyl)-1H-imidazol-5-yl)quinoxaline] | 280 | 1370 |
| Cc1nc(-c2cc(F)c(F)cc2F)c(-c2ccc3[nH]ncc3c2)[nH]1 [Compound 97, 5-(2-Methyl-4-(2,4,5-trifluorophenyl)-1H-imidazol-5-yl)-1H-indazole] | 100 | 540 |

— patent US10287295B2, “TGF-β inhibitors” (Rigel Pharmaceuticals, Inc., priority 2015, dated 2019)
